From patent US20070010459A1, “Application of asiatic acid and its derivatives to treat pulmonary fibrosis” (priority 2005, published 2007)
In brackets after ≈: the same amount, converted by molar mass.

Tests used:
[1] = background statement, see U.S. Pat. No. 6,417,349; cited from earlier work
[2] = system: pulmonary fibrosis induced by bleomycin in rat; assay: Asiatic acid in bleomycin-induced pulmonary fibrosis rat model; type: in vivo, SD male rats; conditions: for Lung CT scanning results: after 28 days; for Lung Weight: mean
From the text: The pulmonary fibrosis animal model was induced by bleomycin in rat according to the methods described by Lazo J S, Hoyt D G, Sebti S M, Pitt B R. in Pharmacol Ther. 1990: 47:347-58. In this article, praquat, bleomycin and amiodrone are three routinely used chemical agent to induce lung fibrosis is rodents, e.g. mice, rat and Chinese hamsters as well as primates, e.g. baboon and cynomolgous monkey etc. there are also reports describing using rabbit or dog as model animal for such study. Different groups were able to generate lung fibrosis in animal models through different administration routes. For example, 3 various pulmonary fibrosis animal models using Co^60 to radiate rat, bleomycin or CCl4 injection into abdominal cavity of mice or rat respectively were generated. […] Specifically, diffusive stromal lung fibrosis model induced by tracheal bleomycin dripping is the most commonly used animal model. The advantage of this method is that the model can be obtained with once bleomycin dripping without repeated venous or abdominal injections, therefore limiting the influences to other organs caused by systematic administrations. It also lowers the experimental cost. The development of pulmonary fibrosis from alveolitis can be observed in 4 weeks, which is very similar to the pulmonary fibrosis pathological development in human being.
1. Animal: SD male rats with weight raging between 200-250 g, purchased from SLAC.
3. Dosage: Asiatic acid, 3, 9, […], po for 28 days.
Male SD rats were lay down flat on operating table and anesthetize with 3% Secobarbital. The trachea was exposed after sterilization of cervical part with alcohol. The needle was then inserted into tracheal cartilage interspace. Bleomycin at 5 mg/kg was dipped in. Afterwards, the rats were reared to evenly distribute bleomycin in the lung. The trachea was then sutured. […] The regimen was initiated on the second day. Sham-operated and untreated group received saline. After 28 days of treatment, lung weight, hydroyproline content, pathological section and CT scan were measured or conducted.
After 28 days on asiatic acid, rats were sacrificed and dissected. The body and lung weight were measured respectively and used to calculate lung weigh coefficient.
After 28 days on Asiatic acid, hydroxyproline content in lung was measured. The results are as follows:
After 28 days on asiatic acid, lung CT scans were performed to each group of experimental rats.
After 28 days on asiatic acid, the rats were sacrificed and dissected. Both lungs were harvested. The specimen were embedded and fixed then subjected to HE staining. The focus of infection were observed under microscope with ⅓, ⅔ and 3/3 Vf*10 to conduct semi-quantative analysis.

[3] = system: primary culture of mice fibroblast; assay: bFGF-stimulated proliferation of primary fibroblast culture; type: cell-based; conditions: tested at 25, 12.5, 6.25, 3.125 or 1.56 μg
Method: Using bFGF (0.5 µg/ml), the proliferation of primary culture of mice fibroblast with the presence of asiaticoside or asiatic acid at 25, 12.5, 6.25, 3.125 or 1.56 μg respectively was assessed.

[4] = Pharmacokinetics, tissue distribution and excretion of asiaticoside; type: in vivo, rats; conditions: rat, in vivo, 100 mg/kg
Method: Three doses of asiaticoside (10, 33, 100 mg/kg) were gavaged to rats (n=6) and canines (n=4). After dosing, blood was sampled up to 120 or 216 hours in rats and canines respectively. Tissue distribution and excretion studies in rats were carried out with the highest dose.
The respective asiaticoside and asiatic acid in the same bio-matrix were detected by LC/MS/MS and GC/MS. Because the secondary peak resembled a plasma concentration-time profile in both rat and canine rather than conventional compartment fitting, statistical moment analysis was used in calculating pharmacokinetic parameters. […] In addition to the targeted organ, both asiaticoside and asiatic acid were distributed in some other organs, which could be the sign to expand clinical indications.

[5] = system: rats with pulmonary fibrosis induced by bleomycin; assay: Pharmacodynamics of asiaticoside in rats with pulmonary fibrosis induced by bleomycin; type: in vivo
Method: The rats with lung fibrosis were induced by bleomycin through trachea administration and then treated with asiaticoside. […] The study regimen lasted for 28 days. The lung weight coefficient and hydroyproline (HXP) content were measured on day 2 and 8 after the formation of animal model. CT scan, pathology and serum ECM content measurements were conducted on day 14, 21 and 28 days respectively.

[6] = system: radiation pneumonia and subsequent pulmonary fibrosis induced by Cobalt-60 radiation; assay: Pharmacodynamics of asiaticoside in radiation pneumonia induced by Cobalt-60 radiation; type: in vivo, rats; design: Type IV (collagen content comparison, serum ECM) / Laminin (serum ECM) / Hyaluronic Acid (serum ECM): unit not given here
Method: Radiation pneumonia and subsequent pulmonary fibrosis in rats was induced by Cobalt-60 radiation. The efficacies were assessed by the lung weight coefficient, HXP content, serum ECM measurement, CT scan and pathological examinations.

[7] = first experiment, asiatic acid high dose 27 mg/kg po 28 days
[8] = first experiment, asiatic acid low dose 3 mg/kg po 28 days
[9] = first experiment, asiatic acid medium dose 9 mg/kg po 28 days
[10] = second experiment, asiatic acid high dose 27 mg/kg po 28 days
[11] = second experiment, asiatic acid low dose 3 mg/kg po 28 days
[12] = second experiment, asiatic acid medium dose 9 mg/kg po 28 days
[13] = third experiment, asiatic acid high dose 27 mg/kg po 28 days
[14] = third experiment, asiatic acid low dose 3 mg/kg po 28 days
[15] = third experiment, asiatic acid medium dose 9 mg/kg po 28 days
[16] = dexamethasone 0.6 mg/kg daily oral, 28 days
[17] = first experiment, dexmethasone 0.6 mg/kg po 28 days
[18] = second experiment, dexmethasone 0.6 mg/kg po 28 days
[19] = third experiment, dexmethasone 0.6 mg/kg po 28 days

## C[C@H]1[C@H](C)CC[C@]2(C(=O)O)CC[C@]3(C)C(=CC[C@@H]4[C@@]5(C)C[C@@H](O)[C@H](O)[C@@](C)(CO)[C@@H]5CC[C@]43C)[C@H]12 [Asiatic acid, asiatic acid]
[1]
  Solubility: insoluble in water
[2]; acute phase
  CT: therapeutic effect in acute phase of pulmonary fibrosis: didn't display any therapeutic effects
[2]; asiatic acid high dose 27 mg/kg po
  Lung CT scanning results: Light glass infiltration, part of lobules consolidates.
[2]; asiatic acid low dose 3 mg/kg po
  Lung CT scanning results: Consolidation in lobules, bronchiectasis, honeycomb
[2]; asiatic acid high, medium and low dose, 28 days, not dose dependent
  Pathology results (HE staining of lungs): light fibroplasias in alveoli pulmonis diaphragm, light lymphocyte infiltration and compensatory emphysema
[2]; [7]
  Lung weight coefficient: 0.70
  Lung Weight: 2.17 g
[2]; [8]
  Lung weight coefficient: 0.66
  Lung Weight: 1.97 g
[2]; [9]
  Lung weight coefficient: 0.66
  Lung Weight: 2.02 g
[2]; first experiment, high dose 27 mg/kg po * 28
  HX content (hydroxyproline content in lung) X ± SD: 2.39 ± 0.44 mg/g
[2]; first experiment, low dose 3 mg/kg po * 28
  HX content (hydroxyproline content in lung) X ± SD: 3.43 ± 0.62 mg/g
[2]; first experiment, medium dose 9 mg/kg po * 28
  HX content (hydroxyproline content in lung) X ± SD: 2.36 ± 0.87 mg/g
[2]; mid to late phase
  CT: therapeutic effect in mid to late phase of the disease: can significantly relive the extent of fibrosis in lungs
[2]; rats receiving bleomycin induction, direct administration
  Overall effect on lung fibrosis: can relieve lung fibrosis
[2]; [10]
  Lung weight coefficient: 0.65
  Lung Weight: 2.26 g
[2]; [11]
  Lung weight coefficient: 0.76
  Lung Weight: 2.34 g
[2]; [12]
  Lung weight coefficient: 0.70
  Lung Weight: 2.21 g
[2]; second experiment, high dose 27 mg/kg po * 28
  HX content (hydroxyproline content in lung) X ± SD: 2.37 ± 0.41 mg/g
[2]; second experiment, low dose 3 mg/kg po * 28
  HX content (hydroxyproline content in lung) X ± SD: 3.41 ± 0.60 mg/g
[2]; second experiment, medium dose 9 mg/kg po * 28
  HX content (hydroxyproline content in lung) X ± SD: 2.36 ± 0.79 mg/g
[2]; [13]
  Lung weight coefficient: 0.70
  Lung Weight: 2.17 g
[2]; [14]
  Lung weight coefficient: 0.66
  Lung Weight: 1.97 g
[2]; [15]
  Lung weight coefficient: 0.66
  Lung Weight: 2.02 g
[2]; third experiment, high dose 27 mg/kg po * 28
  HX content (hydroxyproline content in lung) X ± SD: 2.30 ± 0.46 mg/g
[2]; third experiment, low dose 3 mg/kg po * 28
  HX content (hydroxyproline content in lung) X ± SD: 3.42 ± 0.57 mg/g
[2]; third experiment, medium dose 9 mg/kg po * 28
  HX content (hydroxyproline content in lung) X ± SD: 2.71 ± 0.44 mg/g
[3]; Mus musculus, Fibroblast, bFGF, read-out: IC50, growth inhibition of fibroblast treated with bFGF
  IC50: 137 µg/mL (≈ 280 µM)
[3]; bFGF 0.5 g/ml
  Inhibitory activity on fibroblast proliferation: growth inhibitory roles to fibroblast treated with bFGF to certain extent
[4]
  Tissue accumulation: no apparent tissue accumulation

## C[C@@H]1C[C@H]2[C@@H]3CCC4=CC(=O)C=C[C@]4(C)[C@@]3(F)[C@@H](O)C[C@]2(C)[C@@]1(O)C(=O)CO [Dexmethasone, Dexamethasone, reference compound]
[5]; dexamethasone 0.6 mg/kg
  CT scan findings: ground glass infiltration and fibrotic streaks were found in both lungs
  ET-1 (cytokine content): 257.86 ± 20.81
  Hyaluronic Acid (serum ECM): 232.97 ± 101.24
  Laminin (serum ECM): 48.41 ± 14.12
  PIIIP (collagen content comparison, serum ECM): 19.59 ± 6.24
  Pathology: a light inflammatory reaction caused by lymphocyte was found with inflammatory cell infiltration seen in the alveoli pulmonis
  TNF-α (cytokine content): 6.50 ± 0.73
  TNF-[…] (cytokine content): 0.075 ± 0.010
  Type IV (collagen content comparison, serum ECM): 10.71 ± 4.94
[5]; [16]
  HXP content: 19.32 ± 4.35 mg/g
  Lung weight coefficient: 0.72%
[6]; dexamethasone group
  CT scan findings: mild ground glass infiltration and fibrotic streaks in the right lung with right base atelectasis
[6]; dexamethasone treated
  HXP content: 36.42 ± 2.74 mg/g
  Hyaluronic Acid (serum ECM): 195.12 ± 55.89
  Laminin (serum ECM): 47.91 ± 8.04
  Lung weight coefficient: 0.42%
  PIIIP (collagen content comparison, serum ECM): 14.51 ± 5.61
  Type IV (collagen content comparison, serum ECM): 12.65 ± 2.87
[2]; dexmethasone 0.6 mg/kg po
  Lung CT scanning results: Light hyperplasy in lung striation. Light consolidation
[2]; first experiment, 0.6 mg/kg po * 28
  HX content (hydroxyproline content in lung) X ± SD: 2.34 ± 9.54 mg/g
[2]; [17]
  Lung weight coefficient: 0.72
  Lung Weight: 1.90 g
[2]; second experiment, 0.6 mg/kg po * 28
  HX content (hydroxyproline content in lung) X ± SD: 2.41 ± 0.45 mg/g
[2]; [18]
  Lung weight coefficient: 0.69
  Lung Weight: 1.62 g
[2]; third experiment, 0.6 mg/kg po * 28
  HX content (hydroxyproline content in lung) X ± SD: 2.47 ± 0.45 mg/g
[2]; [19]
  Lung weight coefficient: 0.72
  Lung Weight: 1.90 g
